The values that follow are results of earlier work, collected in patent publication US11565004B2, “In vivo imaging of matrix metalloproteinases in lung disease” (The Trustees of Columbia University in the City of New York, priority 2016, dated 2023).

The test system of this data set is MMPs-1, -2, -3, -7, -9, -12, and -13.

For `COc1ccc(S(=O)(=O)N(Cc2cccnc2)[C@@H](C(=O)NO)C(C)C)cc1` [CGS27023A], the “affinities against MMPs” value is recorded as “high affinities”.
